# Structures can show the parent of a compound that is named as a salt.
# System: S. aureus WCUH29, S. pneumoniae 1629, H. influenzae ATCC 51907, M. catarrhalis Ravisio
# Experiment: MIC of further test compounds against an alternative selection of organisms
# Type: cell-based
# Settings: versus all these organisms (alternative panel of 4 strains)
# Description: The MIC […] of further test compounds against an alternative selection of organisms was determined: S. aureus WCUH29, S. pneumoniae 1629, H. influenzae ATCC 51907, M. catarrhalis Ravisio.
row,Structure (SMILES),MIC [µg/mL]
1,"COCCOc1ccc2nccc(NC(=O)[C@]3(O)CC[C@@H](NCc4ccc5c(n4)NC(=O)CS5)CC3)c2n1 [Example 313, 1-Hydroxy-t-4-[(3-oxo-3,4-dihydro-2H-pyrido[3,2-b][1,4]thiazin-6-ylmethyl)-amino]-r-cyclohexanecarboxylic acid [6-(2-methoxy-ethoxy)-[1,5]naphthyridin-4-yl]-amide dihydrochloride]",≤ 16
2,"CCc1cc2c(nc1CN[C@H]1CC[C@](O)(C(=O)Nc3ccnc4ccc(OC)nc34)CC1)NC(=O)CS2 [Example 311, 1-Hydroxy-t-4-[(7-ethyl-3-oxo-3,4-dihydro-2H-pyrido[3,2-b][1,4]thiazin-6-ylmethyl)-amino]-r-cyclohexanecarboxylic acid (6-methoxy-[1,5]naphthyridin-4-yl)-amide dihydrochloride]",≤ 16

# System: not listed separately
# Experiment: MIC of test compounds against various organisms
# Type: cell-based
# Settings: versus all these organisms (panel of 10 strains); read-out: MIC
row,Structure (SMILES),MIC [µg/mL]
1,"COc1ccc2nccc(NC(=O)[C@]3(O)CC[C@@H](NCc4nc5c(cc4Br)SCC(=O)N5)CC3)c2n1 [Example 304, 1-Hydroxy-t-4-[(7-bromo-3-oxo-3,4-dihydro-2H-pyrido[3,2-b][1,4]thiazin-6-ylmethyl)-amino]-r-cyclohexanecarboxylic Acid (6-methoxy-[1,5]naphthyridin-4-yl)-amide Dihydrochloride]",≤ 4
2,"COc1ccc2nccc(NC(=O)[C@H]3CC[C@H](NCc4cc5c(cc4F)SCC(=O)N5)CC3)c2n1 [Example 34, Trans-4-[(7-Fluoro-3-oxo-3,4-dihydro-2H-benzo[1,4]thiazin-6-ylmethyl)-amino]-cyclohexanecarboxylic acid (6-methoxy-[1,5]naphthyridin-4-yl)-amide oxalate salt]",≤ 4
3,"COc1ccc2nccc(NC(=O)[C@H]3CC[C@H](NCc4ccc5nsnc5c4)CC3)c2c1 [Example 12, Trans-4-[(Benzo[1,2,5]thiadiazol-5-ylmethyl)-amino]-cyclohexanecarboxylic acid (6-methoxy-quinolin-4-yl)-amide fumarate salt]",≤ 4
4,"COc1ccc2nccc(NC(=O)[C@H]3CC[C@H](NCc4cnc5c(c4)OCCO5)CC3)c2n1 [Example 20, Trans-4-[(2,3-Dihydro-[1,4]dioxino[2,3-b]pyridin-7-ylmethyl)-amino]-cyclohexanecarboxylic acid (6-methoxy-[1,5]naphthyridin-4-yl)-amide oxalate salt]",≤ 4
5,"COc1ccc2nccc(NC(=O)[C@H]3CC[C@H](NCc4ccc5scnc5c4)CC3)c2n1 [Example 25, Trans-4-[(Benzothiazol-5-ylmethyl)-amino]cyclohexanecarboxylic acid(6-methoxy-[1,5]naphthyridine-4-yl)amide oxalate salt]",≤ 64
6,"COc1ccc2nccc(NC(=O)[C@H]3CC[C@H](NCc4ccc5c(c4)OCCO5)CC3)c2n1 [Example 5, Trans-4-[(2,3-Dihydro-benzo[1,4]dioxin-6-ylmethyl)-amino]-cyclohexanecarboxylic acid (6-methoxy-[1,5]naphthyridin-4-yl)-amide fumarate salt]",≤ 4
7,"COc1ccc2nccc(NC(=O)C3=CCC(NCc4cnc5c(c4)NC(=O)CS5)CC3)c2n1 (racemic) [Example 153, (R/S)-4-[(2-Oxo-2,3-dihydro-1H-pyrido[2,3-b][1,4]thiazin-7-ylmethyl)-amino]-cyclohex-1-ene carboxylic acid (6-methoxy-[1,5]naphthyridin-4-yl)-amide oxalate]",≤ 4
8,"COc1ccc2nccc(NC(=O)[C@H]3CC[C@H](NCc4ccc5c(n4)OCCO5)CC3)c2n1 [Example 18, Trans-4-[(2,3-Dihydro-[1,4]dioxino[2,3-b]pyridin-6-ylmethyl)-amino]-cyclohexanecarboxylic acid (6-methoxy-[1,5]naphthyridin-4-yl)-amide oxalate salt]",≤ 64
9,"COc1ccc2nccc(NC(=O)[C@H]3CC[C@H](NCc4cc5c(cc4[N+](=O)[O-])OCO5)CC3)c2n1.O=C(O)C(=O)O [Example 23, Trans-4-[(6-Nitro-benzo[1,3]dioxol-5-ylmethyl)-amino]-cyclohexanecarboxylic acid (6-methoxy-[1,5]naphthyridin-4-yl)-amide oxalate salt]",≤ 4
10,"COc1ccc2nccc(NC(=O)[C@H]3CC[C@H](NCc4ccc5c(c4)NC(=O)CS5)CC3)c2n1 [Example 4, Trans-4-[(3-Oxo-3,4-dihydro-2H-benzo[1,4]thiazin-6-ylmethyl)-amino]-cyclohexane carboxylic acid (6-methoxy-[1,5]naphthyridin-4-yl)-amide fumarate salt]",≤ 4
11,"COc1ccc2nccc(NC(=O)[C@H]3CC[C@H](NCc4cnc5c(c4)NC(=O)CS5)CC3)c2n1 [Example 13, Trans-4-[(2-Oxo-2,3-dihydro-1H-pyrido[2,3-b][1,4]thiazin-7-ylmethyl)-amino]-cyclohexanecarboxylic Acid (6-methoxy-[1,5]naphthyridin-4-yl)-amide oxalate salt]",≤ 4
12,"COc1ccc2nccc(NC(=O)C3=CCC(NCc4cnc5c(c4)NC(=O)CO5)CC3)c2n1 (racemic) [Example 155, (R/S)-4-[(2-Oxo-2,3-dihydro-1H-pyrido[2,3-b][1,4]oxazin-7-ylmethyl)-amino]-cyclohex-1-enecarboxylic Acid (6-methoxy-[1,5]naphthyridin-4-yl)-amide oxalate]",≤ 16
13,"COc1ccc2nccc(NC(=O)[C@H]3CC[C@H](NCc4cc5cccnc5[nH]4)CC3)c2n1 [Example 3, Trans-4-[(1H-Pyrrolo[2,3-b]pyridin-2-ylmethyl)-amino]-cyclohexanecarboxylic acid (6-methoxy-[1,5]naphthyridin4-yl)-amide fumarate salt]",≤ 4
14,"COc1ccc2nccc(NC(=O)C3=CCC(NCc4ccc5c(c4)NC(=O)CS5)CC3)c2n1 (racemic) [Example 150, (R/S)-4-[(3-Oxo-3,4-dihydro-2H-benzo-[1,4]thiazin-6ylmethyl)-amino]-cyclohex-1-ene carboxylic acid (6-methoxy-[1,5]naphthyridin-4-yl)-amide oxalate]",≤ 4
15,"COc1ccc2nccc(NC(=O)[C@H]3CC[C@H](NCc4cc5c(cn4)OCCO5)CC3)c2n1 [Example 19, Trans-4-[(2,3-Dihydro-[1,4]dioxino[2,3-c]pyridin-7-ylmethyl)-amino]-cyclohexanecarboxylic acid (6-methoxy-[1,5]naphthyridin-4-yl)-amide oxalate salt]",≤ 4
16,"COc1ccc2nccc(NC(=O)[C@H]3CC[C@H](NCc4cc5c(cc4N)OCO5)CC3)c2n1 [Example 24, Trans-4-[(6-Amino-benzo[1,3]dioxol-5-ylmethyl)-amino]-cyclohexanecarboxylic acid (6-methoxy-[1,5]naphthyridin-4-yl)-amide dioxalate salt]",≤ 16
17,"COc1ccc2nccc(NC(=O)[C@H]3CC[C@H](NCc4cc5cccc(O)c5c(=O)[nH]4)CC3)c2n1 [Example 17, Trans-4-[(8-Hydroxy-1-oxo-1,2-dihydro-isoquinolin-3-ylmethyl)-amino]-cyclohexanecarboxylic acid (6-methoxy-[1,5]naphthyridin-4-yl)-amide dihydrochloride salt]",≤ 16
18,"COc1ccc2nccc(NC(=O)[C@H]3CC[C@H](NCc4ccc5c(c4)oc(=O)n5C)CC3)c2n1 [Example 7, Trans-4-[(3-Methyl-2-oxo-2,3-dihydro-benzooxazol-6-ylmethyl)-amino]-cyclohexanecarboxylic acid (6-methoxy-[1,5]naphthyridin-4-yl)-amide oxalate salt]",≤ 64
19,"COc1ccc2nccc(NC(=O)[C@H]3CC[C@H](NCc4ccc5snnc5c4)CC3)c2n1 [Example 6, Trans-4-[(Benzo[1,2,3]thiadiazol-5-ylmethyl)-amino]-cyclohexanecarboxylic acid (6-methoxy-[1,5]naphthyridin-4-yl)-amide fumarate salt]",≤ 4

# Reference: patent US7141564B2, “Nitrogen-containing bicyclic heterocycles for use as antibacterials” (priority 2001, dated 2006)
